Measured values taken from ChEMBL document CHEMBL5120967, “Development of an Orally Active Small-Molecule Inhibitor of Receptor Activator of Nuclear Factor-κB Ligand” (J Med Chem, 2022).
Calls of active or inactive are those of the source. No cut-off for these calls is given here.

Columns and labels:
BMDM [1] = assay: Inhibition of RANKL-induced NFATc1 in mRNA expression in C57/BL6 mouse bone marrow macrophage cells upto 5 uM measured after 3 days by qRT-PCR analysis; type: functional, cell-based; settings: time 3.0 day
BMDM [2] = assay: Anti-osteoporosis activity C57/BL6 mouse bone marrow macrophage cells assessed as inhibition of RANKL-induced F-actin size upto 5 uM measured after 5 to 6 days in presence of M-CSF by DAPI staining analysis; type: functional, cell-based; settings: time 5-6 day
BMDM [3] = assay: Inhibition of RANKL-induced Cathepsin K in mRNA expression in C57/BL6 mouse bone marrow macrophage cells upto 5 uM measured after 3 days by qRT-PCR analysis; type: functional, cell-based; settings: time 3.0 day
Mus musculus [4] = assay: Anti-osteoporosis activity in OVX-induced C57/BL6 mouse model assessed as increase in bone mineral density by measuring recovery at 60 mg/kg, po once per day for 28 days by microCT imaging analysis; type: functional; settings: time 28 day
BMDM [5] = assay: Anti-osteoporosis activity C57/BL6 mouse bone marrow macrophage cells assessed as inhibition of RANKL-induced osteoclastogenesis and measured after 5 to 6 days in presence of M-CSF by TRAP staining based assay; type: functional, cell-based; settings: dose 0.1-5 µM, time 5-6 day, DDE = dose-dependent effect
[6] = Clearance in OVX-induced C57/BL6 mouse model at 3 mg/kg, iv; type: ADME, organism-based; settings: female, in vivo
BMDM [7] = assay: Cytotoxicity against C57/BL6 mouse bone marrow macrophage cells at 5 uM measured after 3 days in presence of M-CSF by CCK-8 assay; type: toxicity, cell-based; settings: 72 h, time 3 day
[8] = Anti-osteoporosis activity C57/BL6 mouse bone marrow macrophage cells assessed as inhibition of RANKL-induced osteoclastogenesis at 0.1 uM measured after 5 to 6 days in presence of M-CSF and RNKL by TRAP staining microscopic analysis; type: functional, BMDM; set-up: scale not given: the % may be the effect or the level left; settings: time 5-6 day
[9] = Anti-osteoporosis activity C57/BL6 mouse bone marrow macrophage cells assessed as inhibition of RANKL-induced osteoclastogenesis at 1 uM measured after 5 to 6 days in presence of M-CSF and RNKL by TRAP staining microscopic analysis; type: functional, BMDM; set-up: scale not given: the % may be the effect or the level left; settings: time 5-6 day
[10] = Oral bioavailability in OVX-induced C57/BL6 mouse model; type: ADME, organism-based; settings: female, in vivo
[11] = Half life in OVX-induced C57/BL6 mouse model at 5 mg/kg, po; type: ADME, organism-based; settings: female, in vivo
Mus musculus [12] = assay: Anti-osteoporosis activity in ligature-induced periodontal BALB/c mouse model assessed as increase in alveolar bone mass at 20 mg/kg, ip measured for 4 weeks by microCT imaging analysis; type: functional
BMDM [13] = assay: Inhibition of RANKL-induced c-fos in mRNA expression in C57/BL6 mouse bone marrow macrophage cells upto 5 uM measured after 3 days by qRT-PCR analysis; type: functional, cell-based; settings: time 3.0 day
[14] = Cmax in OVX-induced C57/BL6 mouse model at 5 mg/kg, po; type: ADME, organism-based; set-up: dose 5 mg/kg, route po; settings: female, in vivo
BMDM [15] = assay: Inhibition of RANKL-induced c-FOS protein expression in C57/BL6 mouse bone marrow macrophage cells upto 10 uM measured for 3 days in presence of M-CSF and RANKL by Western blot analysis; type: functional, cell-based; settings: time 3.0 day, DDE = dose-dependent effect
BMDM [16] = assay: Inhibition of RANKL-induced NFATC1 protein expression in C57/BL6 mouse bone marrow macrophage cells upto 10 uM measured for 3 days in presence of M-CSF and RANKL by Western blot analysis; type: functional, cell-based; settings: time 3.0 day, DDE = dose-dependent effect
Mus musculus [17] = assay: Anti-osteoporosis activity in ligature-induced periodontal BALB/c mouse model assessed as increase in vertical bone at 20 mg/kg, ip measured for 4 weeks by microCT imaging analysis; type: functional
[18] = AUC(0 to t) in OVX-induced C57/BL6 mouse model at 3 mg/kg, iv; type: ADME, organism-based; set-up: dose 3 mg/kg, route iv; settings: female, in vivo
BMDM [19] = assay: Cytotoxicity against C57/BL6 mouse bone marrow macrophage cells assessed as reduction in cell viability at 10 uM incubated for 3 days by CCK8 assay; type: toxicity, cell-based; settings: 72 h, time 3 day
[20] = Anti-osteoporosis activity C57/BL6 mouse bone marrow macrophage cells assessed as inhibition of RANKL-induced osteoclastogenesis measured after 5 to 6 days in presence of M-CSF by DAPI staining analysis; type: functional, cell-based; settings: bmdm
BMDM [21] = assay: Anti-osteoporosis activity C57/BL6 mouse bone marrow macrophage cells assessed as inhibition of RANKL-induced F-actin levels upto 5 uM measured after 5 to 6 days in presence of M-CSF by DAPI staining analysis; type: functional, cell-based; settings: time 5-6 day
[22] = AUC(0 to t) in OVX-induced C57/BL6 mouse model at 5 mg/kg, po; type: ADME, organism-based; set-up: dose 5 mg/kg, route po; settings: female, in vivo
Mus musculus [23] = assay: Anti-osteoporosis activity in ligature-induced periodontal BALB/c mouse model assessed as increase in bone volume at 20 mg/kg, ip measured for 4 weeks by microCT imaging analysis; type: functional
[24] = Half life in OVX-induced C57/BL6 mouse model at 3 mg/kg, iv; type: ADME, organism-based; settings: female, in vivo
Mus musculus [25] = assay: Anti-osteoporosis activity in ligature-induced periodontal BALB/c mouse model assessed as decrease in bone loss at 20 mg/kg, ip measured for 4 weeks by microCT imaging analysis; type: functional, organism-based
BMDM [26] = assay: Inhibition of RANKL-induced TRAP in mRNA expression in C57/BL6 mouse bone marrow macrophage cells upto 5 uM measured after 3 days by qRT-PCR analysis; type: functional, cell-based; settings: time 3.0 day
[27] = molecular target: T1, Tumor necrosis factor ligand superfamily member 11 (Homo sapiens, UniProt O14788); assay: Binding affinity to human RANKL assessed as dissociation constant by surface plasmon resonance method
T1 sequence (O14788 whole entry): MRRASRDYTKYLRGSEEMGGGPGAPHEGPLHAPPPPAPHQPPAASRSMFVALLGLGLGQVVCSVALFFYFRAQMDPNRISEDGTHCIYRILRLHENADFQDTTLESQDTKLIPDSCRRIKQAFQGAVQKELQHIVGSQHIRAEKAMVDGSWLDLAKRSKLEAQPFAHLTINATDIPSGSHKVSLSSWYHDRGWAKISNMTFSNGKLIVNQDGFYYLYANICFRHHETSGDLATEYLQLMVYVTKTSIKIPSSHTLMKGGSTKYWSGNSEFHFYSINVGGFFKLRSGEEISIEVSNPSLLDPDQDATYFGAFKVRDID

Cc1cccc(C)c1NC(=O)c1cc2c([nH]c3ccccc32)c(CCc2ccccc2)n1
inhibition (BMDM [1]): Active | Activity (BMDM [2]): Active | inhibition (BMDM [3]): Active | Activity (Mus musculus [4]): 23.4% | Activity (BMDM [5]): Dde | clearance [6]: 18.6 mL/min/kg | Activity (BMDM [7]): Non-Toxic | Activity [8]: 45.9% | Activity [9]: 89.3% | bioavailability [10]: 4.9% | half-life [11]: 2 h | Activity (Mus musculus [12]): 60.7% | inhibition (BMDM [13]): Active | Cmax [14]: 48.1 ng/mL | inhibition (BMDM [15]): Dde | inhibition (BMDM [16]): Dde | Activity (Mus musculus [17]): 67% | AUC(0-t) [18]: 2710 ng·h/mL | Cell viability (BMDM [19]): > 100% | IC50 [20]: 0.52 µM | Activity (BMDM [21]): Active | AUC(0-t) [22]: 223 ng·h/mL | Activity (Mus musculus [23]): 51.9% | half-life [24]: 5.1 h | Activity (Mus musculus [25]): Active | inhibition (BMDM [26]): Active | Kd [27]: 5.03 µM
